Each block holds one molecule with its values, some of them ahead of it.
Key:
CX3CR1 [1] = molecular target: T1, CX3CR1 (Homo sapiens, UniProt P49238); assay: Equilibrium saturation binding, CHO-hCX3CR1 membranes; design: host or cells: CHO-K1; details: GTPγS added (100 μM)
T1 sequence (P49238 1-355): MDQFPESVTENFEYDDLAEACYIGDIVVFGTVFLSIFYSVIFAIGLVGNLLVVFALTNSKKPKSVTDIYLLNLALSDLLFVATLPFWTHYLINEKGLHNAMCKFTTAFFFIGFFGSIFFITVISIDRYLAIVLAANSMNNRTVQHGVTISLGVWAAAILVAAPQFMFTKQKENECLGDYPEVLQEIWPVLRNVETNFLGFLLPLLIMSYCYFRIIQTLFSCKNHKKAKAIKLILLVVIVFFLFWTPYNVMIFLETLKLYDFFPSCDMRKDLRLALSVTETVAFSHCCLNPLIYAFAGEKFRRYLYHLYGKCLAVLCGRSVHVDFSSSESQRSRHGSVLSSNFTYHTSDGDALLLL
Protocol: Cells were washed in PBS and lysed with an Ultra-Turrax Homogenizer in 50 mM Tris/HCl (pH 7.4) and 1 mM EDTA with Complete™ protease inhibitor (Roche). […] Protein concentration was determined using the BCA method (Thermo Fisher Scientific). […] The filter plate was washed in ice-cold 25 mM HEPES (pH 7.4), 5 mM MgCl2, 1 mM CaCl2 and 500 mM NaCl and dried at 50°C for 1 h. Scintillation cocktail, Optiphase Supermix (PerkinElmer) was added to each well and the radioactivity was measured using a MicroBeta Trilux reader (PerkinElmer). […] The DMSO concentration was held constant at 1%. where Kd is the radioligand dissociation constant. Saturation binding isotherms were analysed by non-linear regression and globally fitted to a hyperbolic one-site binding model taking into account both NSB and total binding to calculate the total receptor number (Bmax) and radioligand dissociation constant (Kd): […] NSB=NS·X+Background, where NS is the concentration-dependent NSB. To visualize the manner of binding of CX3CL1 and AZD8797, a diagnostic affinity ratio plot designed to compare strictly competitive behaviour with allosteric interactions was used. […] For single site competitive interactions, the resulting linear plot has the slope of 1.0. For allosteric but competitive interactions, the slope will start at 1.0 but progressively deviate from unity, eventually reaching a limit governed by the allosteric ternary complex model co-operativity factor α [21, 22].

CX3CR1 [2] = molecular target: T1, CX3CR1; assay: 125I-CX3CL1 kinetic radioligand binding, CHO-hCX3CR1 membranes; design: host or cells: CHO-K1
Protocol: Incubation times ranged from 2.5 min to 4 h. For the association experiments, the radioligand data were fitted to the following monophasic exponential association equation and the association rate (kon) was calculated using the added amounts of radioligand (L) and dissociation rate (koff) as constants. koff was measured in separate dissociation experiments. The dissociation data were fitted to the monophasic exponential decay equation: where Y0 is the binding (cpm) at time zero, X is the time and NS is the (non-specific) binding at infinite times. […] Multiple compound dissociation data were fitted to the biphasic exponential decay equation: […]

CX3CR1 [3] = molecular target: T2, CX3CR1 (Homo sapiens, UniProt P49238); assay: 125I-CX3CL1 saturation radioligand binding (CHO-hCX3CR1 membranes)
T2 chain: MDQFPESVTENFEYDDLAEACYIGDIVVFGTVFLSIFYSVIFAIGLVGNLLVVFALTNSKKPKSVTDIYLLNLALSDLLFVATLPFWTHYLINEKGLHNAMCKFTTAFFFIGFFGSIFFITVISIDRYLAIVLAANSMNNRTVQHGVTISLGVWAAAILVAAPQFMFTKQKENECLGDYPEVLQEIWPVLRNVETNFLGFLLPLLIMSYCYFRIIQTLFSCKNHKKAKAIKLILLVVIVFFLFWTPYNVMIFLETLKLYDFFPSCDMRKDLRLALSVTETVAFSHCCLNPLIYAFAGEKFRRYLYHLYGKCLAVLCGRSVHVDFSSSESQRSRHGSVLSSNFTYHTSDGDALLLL

CX3CR1 [4] = molecular target: T2, CX3CR1; assay: 125I-CX3CL1 competition radioligand binding (CHO-hCX3CR1 membranes)
[5] = co-adding 100 μM GTPγS + 100 nM CX3CL1, two-phase model, n=2

Effect on [3H]AZD8797 and 125I-CX3CL1 equilibrium saturation binding (CX3CR1 [1]): no effect | k1off of 125I-CX3CL1 dissociation (CX3CR1 [2]; [5]): 0.55 min⁻¹ | k2off of 125I-CX3CL1 dissociation (CX3CR1 [2]; [5]): 0.0084 min⁻¹ | Effect on 125I-CX3CL1 association rate (kon) (CX3CR1 [2]; results not shown): no effect | Effect on maximal binding of 125I-CX3CL1 in association experiments (CX3CR1 [2]; results not shown): no effect
Molecule: Nc1nc2c(ncn2[C@@H]2O[C@H](COP(=O)(O)OP(=O)(O)OP(O)(O)=S)[C@@H](O)[C@H]2O)c(=O)[nH]1 [GTPγS, guanosine 5′-[γ-thio]triphosphate, reference compound]

Kd (CX3CR1 [3]): 0.19 nM
B1: CX3CL1 (fractalkine) chemokine domain (protein)
chain: LAGQHHGVTKCNITCSKMTSKIPVALLIHYQQNQASCGKRAIILETRQHRLFCADPKEQWVKDAMQHLDRQAAALTRNGGTF
modifications: 125I-labelled CX3CL1

Ki (CX3CR1 [4]): 0.29 nM
B2: CX3CL1 (fractalkine) chemokine domain (protein)
chain: LAGQHHGVTKCNITCSKMTSKIPVALLIHYQQNQASCGKRAIILETRQHRLFCADPKEQWVKDAMQHLDRQAAALTRNGGTF
